Among the data in BindingDB's records for doi:10.1021/ml500238q (University of Bonn, 2014) are Ki values, retold here.

SMILES strings stand for the structures.

For orientation: Ki means the equilibrium dissociation constant of an inhibitor or competing ligand from its target. Read a low Ki as higher affinity.

The target of this assay is Cathepsin K (Homo sapiens) (UniProt P43235). The assay can be described thus: Inhibition of human cathepsin K using Z-Leu-Arg-AMC fluorogenic substrate incubated for 60 mins.
As to `CC(C)(C)OC(=O)NN(C#N)CC(=O)N(Cc1ccccc1)Cc1ccccc1`, the Ki was determined as 1.43 pM. Then `CN(C(=O)OC(C)(C)C)N(C#N)CC(=O)N1CCOCC1`, with 31000 pM; and `CN(Cc1ccccc1)C(=O)CN(C#N)NC(=O)OC(C)(C)C`, with 4.2 pM; and `CC(C)(C)OC(=O)NN(C#N)CC(=O)N1CCOCC1`, with 11 pM.
